Reference: US8367361B2, “Methods using O6-alkylguanine-DNA alkytransferase” (Ecole Polytechnique Federale de Lausanne, priority 2001, dated 2013)

Tests used:
[1] = target: T1, endogenous hAGT in human cells (HEK 293) (Homo sapiens, UniProt P16455); experiment: Fluorescence labelling of endogenous hAGT in HEK 293 cells, confocal microscopy; type: cell-based; conditions: HEK 293 cells preincubated overnight with 1 μM O6-benzylguanine before BG-AcFc
T1 construct: endogenous hAGT in human cells (HEK 293); endogenous in cells; host or cells: HEK 293
T1 sequence (P16455 1-207): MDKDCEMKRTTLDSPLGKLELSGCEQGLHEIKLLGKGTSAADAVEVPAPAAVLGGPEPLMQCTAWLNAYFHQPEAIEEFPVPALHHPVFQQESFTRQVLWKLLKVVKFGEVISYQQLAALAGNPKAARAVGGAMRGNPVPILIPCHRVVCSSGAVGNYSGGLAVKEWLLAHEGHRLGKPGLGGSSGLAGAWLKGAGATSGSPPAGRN
From the text: (C) is an overlay of the images obtained from fluorescence and light microscopy.
Images were then taken with a confocal fluorescence microscope (Ext. 492 nm; Em. 510 nm). […] This should inactivate the endogenous hAGT and therefore prevent the accumulation of the fluorescence in the nucleus. […] The substrate's emission wavelength is 519 nm (excitation at 237, 323 and 490 nm respectively).

[2] = target: T2, hAGT (Homo sapiens, UniProt P16455); conditions: cited from earlier work
T2 sequence (P16455 1-207): T1 sequence (P16455 1-207)

Nc1nc(OCc2ccccc2)c2nc[nH]c2n1 [O^6-benzylguanine]
accumulation of BG-AcFc fluorescence in the nucleus after preincubation [1]: no accumulation of fluorescence in the nucleus was observed
second order rate constant of reaction with hAGT [2]: approximately 10^3 sec^−1 M^−1
